Measured values: ChEMBL document CHEMBL1201862, “PubChem BioAssay data set” (2004)
pIC50: −log10 of the molar value. Activity calls are given as the source filed them.

Key:
[1] = Luminescence Cell-Based Dose Response HTS to Identify Inhibitors of 5'UTR Stem-Loop Driven Prion Protein mRNA Translation in H4 Neuroglioblastoma Cells. [Related pubchem assays: 1827 (Project Summary), 1813 (Primary HTS)]; assay type: functional
[2] = inhibitors of firefly luciferase expression or activity, dose response, H4 neuroglioma cells, luminescence (AID 1990); assay type: functional, cell-based
[3] = inhibitors of SNCA 5'UTR-driven reporter translation, confirmation, H4 neuroglioma cells, luminescence (AID 1988); assay type: functional, cell-based
[4] = cytotoxicity in HEK-293T cells, dose response, cytotoxicity control for BCR NF-kB inhibitor project, luminescence, B-cell screen hits (AID 489021); assay type: functional, cell-based;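 further: HEK-293T cells carrying an NF-kB luciferase reporter; cells exposed to compound for about 14 hours before viability readout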
Nonstructural protein 1 = Nonstructural protein 1 (Influenza A virus, UniProt Q194T2); assay type: functional, Influenza A virus (A/California/07/2009(H1N1))
Beta Lactamase = Beta Lactamase (Pseudomonas aeruginosa, UniProt Q932Y6); assay: beta-lactamase reporter inhibitor potency, dose response, artefact control for NOD2-RIPK2 interaction inhibitor project, BLA reporter cells, FRET fluorescence (AID 651552); assay type: functional, cell-based
[5] = molecular target: Glucose-6-phosphate 1-dehydrogenase (Homo sapiens, UniProt P11413); assay: human G6PD enzyme inhibitors, dose response, selectivity assay for P. falciparum G6PD inhibitor project, biochemical, fluorescence (AID 504792); assay type: functional
[6] = molecular target: Matrix metalloproteinase-14 (Homo sapiens, UniProt P50281); assay: Dose Response confirmation of uHTS hits for a small molecule inhibitors of MT1-MMP activation in a fluorescence assay set 1.; assay type: functional
[7] = Fluorescence-based cell-based high throughput dose response assay for inhibitors of the interaction of nucleotide-binding oligomerization domain containing 2 (NOD2) and the receptor-interacting serine-threonine kinase 2 (RIPK2).; assay type: functional; details: Homo sapiens
[8] = molecular target: Heat shock protein HSP 90-alpha (Homo sapiens, UniProt P07900); assay type: functional, organism-based
[9] = molecular target: T1, Rac GTPase-activating protein 1 (Homo sapiens, UniProt Q9H0H5); assay: MgcRacGAP GTPase-activating activity inhibitors, confirmation, biochemical, ADP Hunter fluorescence, primary and confirmatory (AID 624330); assay type: functional
T1 sequence (Q9H0H5 whole entry): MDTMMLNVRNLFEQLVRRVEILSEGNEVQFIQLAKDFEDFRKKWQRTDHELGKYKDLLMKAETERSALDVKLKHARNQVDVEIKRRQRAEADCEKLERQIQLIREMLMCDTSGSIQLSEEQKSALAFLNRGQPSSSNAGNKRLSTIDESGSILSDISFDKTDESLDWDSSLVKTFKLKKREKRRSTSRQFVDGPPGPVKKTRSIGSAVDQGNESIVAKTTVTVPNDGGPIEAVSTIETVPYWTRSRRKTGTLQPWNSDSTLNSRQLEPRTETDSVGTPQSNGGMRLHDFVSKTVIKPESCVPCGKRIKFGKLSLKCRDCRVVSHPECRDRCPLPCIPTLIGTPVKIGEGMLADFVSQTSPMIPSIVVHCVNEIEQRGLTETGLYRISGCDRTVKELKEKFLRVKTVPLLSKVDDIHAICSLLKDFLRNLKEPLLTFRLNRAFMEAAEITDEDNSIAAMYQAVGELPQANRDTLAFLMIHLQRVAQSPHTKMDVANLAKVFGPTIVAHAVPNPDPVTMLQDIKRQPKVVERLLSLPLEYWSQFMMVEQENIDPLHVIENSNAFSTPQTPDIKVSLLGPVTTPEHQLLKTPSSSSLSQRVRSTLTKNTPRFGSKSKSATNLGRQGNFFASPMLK

[10] = human group III sPLA2 inhibitors, dose response, biochemical, QFRET, IC50 (AID 743457);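 further: green fluorescence rise as the enzyme cleaves BODIPY PC-A2 in liposomes; potency for inhibition of the enzyme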
[11] = HeLa cell cytotoxicity, dose response, cytotoxicity control for MgcRacGAP inhibitor project (AID 624300); assay type: functional
[12] = molecular target: Cyclin-dependent kinase 5/CDK5 activator 1 (Homo sapiens, UniProt Q00535); assay: CDK5/p35 kinase inhibitors, dose response, biochemical, cherry-picked samples, set 2 (AID 504545)
[13] = inhibition of ADP-Glo detection reagents, dose response, artefact control for CDK5 inhibitor project, biochemical, luminescence, cherry-picked samples, set 2 (AID 504546); assay type: functional
[14] = molecular target: T2, Histone-lysine N-methyltransferase NSD2 (Homo sapiens, UniProt O96028); assay type: biochemical
T2 sequence (O96028 whole entry): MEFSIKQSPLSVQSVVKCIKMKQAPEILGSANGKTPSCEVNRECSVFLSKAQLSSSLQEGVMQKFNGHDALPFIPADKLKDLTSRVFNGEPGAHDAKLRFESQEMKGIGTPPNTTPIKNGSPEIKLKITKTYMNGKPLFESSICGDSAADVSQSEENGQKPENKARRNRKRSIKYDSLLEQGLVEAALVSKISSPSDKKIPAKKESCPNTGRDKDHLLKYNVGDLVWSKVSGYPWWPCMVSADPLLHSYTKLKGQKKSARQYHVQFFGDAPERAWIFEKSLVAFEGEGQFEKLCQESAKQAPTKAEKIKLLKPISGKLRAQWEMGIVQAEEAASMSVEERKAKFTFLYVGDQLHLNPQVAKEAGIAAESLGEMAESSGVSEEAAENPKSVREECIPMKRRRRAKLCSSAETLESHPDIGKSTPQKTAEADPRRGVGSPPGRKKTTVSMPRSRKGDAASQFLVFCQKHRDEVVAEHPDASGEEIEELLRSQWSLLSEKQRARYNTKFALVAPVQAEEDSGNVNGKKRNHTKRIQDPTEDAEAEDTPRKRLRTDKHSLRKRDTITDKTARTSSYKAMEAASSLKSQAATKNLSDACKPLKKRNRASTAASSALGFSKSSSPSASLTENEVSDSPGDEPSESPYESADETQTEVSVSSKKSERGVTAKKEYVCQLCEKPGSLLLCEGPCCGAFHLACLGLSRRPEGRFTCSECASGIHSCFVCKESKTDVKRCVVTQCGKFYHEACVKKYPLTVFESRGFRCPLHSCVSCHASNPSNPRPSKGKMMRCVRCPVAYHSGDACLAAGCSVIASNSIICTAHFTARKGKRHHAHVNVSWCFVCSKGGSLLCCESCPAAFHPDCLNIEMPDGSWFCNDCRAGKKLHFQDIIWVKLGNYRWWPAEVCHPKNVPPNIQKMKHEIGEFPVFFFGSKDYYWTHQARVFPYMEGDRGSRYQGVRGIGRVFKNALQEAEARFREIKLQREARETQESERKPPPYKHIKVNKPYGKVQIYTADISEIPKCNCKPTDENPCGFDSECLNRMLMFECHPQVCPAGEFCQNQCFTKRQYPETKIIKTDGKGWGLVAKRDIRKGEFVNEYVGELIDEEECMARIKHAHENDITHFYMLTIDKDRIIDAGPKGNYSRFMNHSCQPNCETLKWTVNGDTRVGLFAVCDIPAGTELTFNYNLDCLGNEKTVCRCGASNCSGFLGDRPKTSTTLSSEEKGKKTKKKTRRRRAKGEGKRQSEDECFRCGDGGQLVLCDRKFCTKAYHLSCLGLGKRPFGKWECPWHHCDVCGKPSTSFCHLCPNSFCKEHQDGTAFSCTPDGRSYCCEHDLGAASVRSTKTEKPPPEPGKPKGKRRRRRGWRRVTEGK

Protein Rev = Protein Rev (Human immunodeficiency virus type 1 group M subtype B (isolate HXB2)(HIV-1), UniProt P04618); assay: inhibitors of Rev binding to RRE RNA, dose response, biochemical, fluorescence polarization, HIV-1 (AID 434976); design: species or system Human immunodeficiency virus 1
Vero = Vero cell cytotoxicity, cytotoxicity control for flavivirus capping enzyme inhibitors (AID 588742); assay type: functional; details: Chlorocebus sabaeus
[15] = molecular target: Female germline-specific tumor suppressor gld-1 (Caenorhabditis elegans, UniProt Q17339); assay: inhibitors of GLD-1 binding to TGE RNA, dose response, biochemical, fluorescence polarization, C. elegans (AID 2802);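 further: fluorescence polarization of labeled TGE RNA bound by purified gld-1 protein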
Genome polyprotein = Genome polyprotein (dengue virus type 2, UniProt P29990); assay: Dengue-2 NS5 methyltransferase inhibitors, primary screen, biochemical, confirmation dose response (AID 588689); assay type: functional
[16] = viability loss in HRASV12 DRD fibroblasts, dose response, cell-based, DRD BJ fibroblasts, dry powder (AID 493049); assay type: functional
[17] = cytotoxicity in BJeHLT fibroblasts, dose response, counter-screen for Ras selective lethality project, BJeHLT cells, dry powder (AID 493052); assay type: functional, cell-based; details: Homo sapiens
[18] = viability loss in BJeLR (HRASV12) cells, primary screen, Ras selective lethality project, cell-based, Alamar Blue, dry powder (AID 493045); assay type: functional
[19] = cytotoxicity in BJeH fibroblasts, dose response, counter-screen for Ras selective lethality project, BJeH cells, dry powder (AID 493054); assay type: functional, cell-based
[20] = inhibition of K1F phage lysis, E. coli UTI89, bacterial capsule biogenesis inhibitors, alamar blue (AID 488966); assay type: functional
cells = assay type: functional
Wee1-like protein kinase = Wee1-like protein kinase (Homo sapiens, UniProt P30291); assay: G2/M cell cycle arrest in HeLa, late-stage follow-up, mechanism study for Wee1 degradation inhibitor project, FACS, panel member Wee1 Degradation (AID 2088)
[21] = molecular target: G2/mitotic-specific cyclin-B1 (Homo sapiens, UniProt P14635); assay: G2/M cell cycle arrest in HeLa, late-stage follow-up, mechanism study for Wee1 degradation inhibitor project, FACS, panel member Cyclin B Degradation (AID 2088)
[22] = molecular target: Scavenger receptor class B member 1 (Mus musculus, UniProt Q61009); assay: inhibitors of SR-BI mediated HDL lipid uptake, dose response, ldlA[mSR-BI] cells, fluorescence, cherry pick (AID 493194); assay type: functional, cell-based;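 further: cellular uptake of fluorescent DiI-labeled HDL measured as cell fluorescence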
[23] = molecular target: T3, Kappa-type opioid receptor (Homo sapiens, UniProt P41145); assay type: functional
[24] = molecular target: T3, Kappa-type opioid receptor; assay type: functional; remark: listed apart in the source
Beta-galactosidase [25] = molecular target: T4, Beta-galactosidase (Escherichia coli, UniProt Q8VNN2); assay: beta-galactosidase enzyme inhibitors and activators, dose response, artefact control for CCR6 antagonist project, biochemical, E. coli enzyme, set 3 (AID 504712); assay type: functional
[26] = molecular target: T5, Corticotropin-releasing factor receptor 2/Corticotropin-releasing factor-binding protein (Homo sapiens, UniProt P24387+Q13324); assay: activators of CRF receptor 2 with binding protein – uHTS hits, confirmation (AID 602473); assay type: functional; details: read-out: EC50_Mean
T5 sequence (Q13324 whole entry): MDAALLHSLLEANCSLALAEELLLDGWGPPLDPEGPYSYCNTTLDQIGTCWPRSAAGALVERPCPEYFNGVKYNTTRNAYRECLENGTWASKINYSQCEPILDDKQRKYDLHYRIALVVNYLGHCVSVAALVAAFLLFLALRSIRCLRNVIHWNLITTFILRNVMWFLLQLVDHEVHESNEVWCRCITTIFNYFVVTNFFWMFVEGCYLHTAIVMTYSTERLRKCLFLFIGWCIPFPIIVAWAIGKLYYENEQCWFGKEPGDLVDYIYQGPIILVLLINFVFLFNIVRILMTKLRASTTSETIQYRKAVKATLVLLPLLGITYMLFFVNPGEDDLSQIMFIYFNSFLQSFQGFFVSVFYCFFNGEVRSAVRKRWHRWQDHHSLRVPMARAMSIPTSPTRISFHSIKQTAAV
T5 sequence (P24387 whole entry): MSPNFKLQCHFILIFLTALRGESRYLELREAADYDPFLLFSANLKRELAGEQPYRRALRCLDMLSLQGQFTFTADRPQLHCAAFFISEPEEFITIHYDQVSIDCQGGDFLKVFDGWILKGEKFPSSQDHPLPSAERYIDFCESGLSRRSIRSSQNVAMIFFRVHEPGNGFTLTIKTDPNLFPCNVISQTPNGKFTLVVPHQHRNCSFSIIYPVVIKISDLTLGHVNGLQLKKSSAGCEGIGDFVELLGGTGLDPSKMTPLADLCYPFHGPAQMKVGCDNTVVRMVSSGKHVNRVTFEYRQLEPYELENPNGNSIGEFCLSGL

Beta-galactosidase [27] = molecular target: T4, Beta-galactosidase; assay type: functional

T4 sequence (Q8VNN2 whole entry): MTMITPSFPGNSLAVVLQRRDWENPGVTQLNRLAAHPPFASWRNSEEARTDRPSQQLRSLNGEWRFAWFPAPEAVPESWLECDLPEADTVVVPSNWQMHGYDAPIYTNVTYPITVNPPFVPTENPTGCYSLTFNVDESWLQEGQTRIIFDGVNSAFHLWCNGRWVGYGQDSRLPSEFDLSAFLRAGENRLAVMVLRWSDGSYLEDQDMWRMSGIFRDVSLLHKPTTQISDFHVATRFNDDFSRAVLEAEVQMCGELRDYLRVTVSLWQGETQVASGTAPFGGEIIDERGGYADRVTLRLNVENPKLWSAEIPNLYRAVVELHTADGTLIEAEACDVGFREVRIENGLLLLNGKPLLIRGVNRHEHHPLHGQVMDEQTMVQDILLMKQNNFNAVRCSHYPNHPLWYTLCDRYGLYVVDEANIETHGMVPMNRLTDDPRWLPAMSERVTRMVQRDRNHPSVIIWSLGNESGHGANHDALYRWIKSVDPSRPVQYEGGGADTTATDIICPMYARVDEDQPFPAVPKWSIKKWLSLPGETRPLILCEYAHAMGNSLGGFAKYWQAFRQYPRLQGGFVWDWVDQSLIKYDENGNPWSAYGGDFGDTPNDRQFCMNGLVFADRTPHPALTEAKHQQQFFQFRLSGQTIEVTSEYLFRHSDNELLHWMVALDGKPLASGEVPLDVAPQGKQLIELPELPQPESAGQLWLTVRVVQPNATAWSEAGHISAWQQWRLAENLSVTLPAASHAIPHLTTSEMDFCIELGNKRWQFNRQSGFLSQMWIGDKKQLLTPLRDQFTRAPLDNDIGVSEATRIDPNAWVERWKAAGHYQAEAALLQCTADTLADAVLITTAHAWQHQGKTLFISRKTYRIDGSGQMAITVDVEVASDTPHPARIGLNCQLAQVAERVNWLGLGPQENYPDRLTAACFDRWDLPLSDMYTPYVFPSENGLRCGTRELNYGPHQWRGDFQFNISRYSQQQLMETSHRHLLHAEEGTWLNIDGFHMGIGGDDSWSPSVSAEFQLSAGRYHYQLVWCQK
T3 sequence (P41145 whole entry): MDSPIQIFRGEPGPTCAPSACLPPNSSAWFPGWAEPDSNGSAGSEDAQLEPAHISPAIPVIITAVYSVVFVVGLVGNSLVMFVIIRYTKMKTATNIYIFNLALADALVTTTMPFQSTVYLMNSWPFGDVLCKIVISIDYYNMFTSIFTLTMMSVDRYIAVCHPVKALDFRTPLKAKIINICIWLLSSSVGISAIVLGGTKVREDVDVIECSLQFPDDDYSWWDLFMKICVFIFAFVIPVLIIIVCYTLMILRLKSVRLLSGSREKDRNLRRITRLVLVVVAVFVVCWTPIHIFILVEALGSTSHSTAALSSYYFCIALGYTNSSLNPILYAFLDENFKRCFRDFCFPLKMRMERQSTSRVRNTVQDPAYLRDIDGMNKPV
Chain of Female germline-specific tumor suppressor gld-1 (Q17339 whole entry): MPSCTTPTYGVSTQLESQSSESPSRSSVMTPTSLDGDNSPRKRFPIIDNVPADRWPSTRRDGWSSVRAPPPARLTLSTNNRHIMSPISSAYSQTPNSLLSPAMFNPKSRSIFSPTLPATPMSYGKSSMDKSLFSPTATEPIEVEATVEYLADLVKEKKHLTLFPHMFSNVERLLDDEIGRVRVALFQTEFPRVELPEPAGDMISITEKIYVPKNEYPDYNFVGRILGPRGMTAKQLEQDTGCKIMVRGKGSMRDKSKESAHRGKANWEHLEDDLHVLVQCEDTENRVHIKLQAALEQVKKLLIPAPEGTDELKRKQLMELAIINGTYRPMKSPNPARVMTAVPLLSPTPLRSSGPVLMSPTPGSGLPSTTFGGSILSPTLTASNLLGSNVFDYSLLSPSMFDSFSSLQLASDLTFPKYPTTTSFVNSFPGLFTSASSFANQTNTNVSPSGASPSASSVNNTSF
Chain of G2/mitotic-specific cyclin-B1 (P14635 whole entry): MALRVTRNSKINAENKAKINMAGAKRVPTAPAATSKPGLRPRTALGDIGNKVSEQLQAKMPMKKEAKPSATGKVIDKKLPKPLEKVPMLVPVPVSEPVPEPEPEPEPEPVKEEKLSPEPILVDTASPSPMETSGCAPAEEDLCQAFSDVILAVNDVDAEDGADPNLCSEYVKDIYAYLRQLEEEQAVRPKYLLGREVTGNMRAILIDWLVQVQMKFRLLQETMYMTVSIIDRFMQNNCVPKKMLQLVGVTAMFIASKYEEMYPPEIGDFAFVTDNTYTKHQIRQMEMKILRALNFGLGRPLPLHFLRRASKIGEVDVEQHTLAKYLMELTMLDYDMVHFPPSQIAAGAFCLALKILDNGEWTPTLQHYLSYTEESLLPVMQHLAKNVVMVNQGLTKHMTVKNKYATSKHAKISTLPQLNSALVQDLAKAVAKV
Chain of Nonstructural protein 1 (Q194T2 whole entry): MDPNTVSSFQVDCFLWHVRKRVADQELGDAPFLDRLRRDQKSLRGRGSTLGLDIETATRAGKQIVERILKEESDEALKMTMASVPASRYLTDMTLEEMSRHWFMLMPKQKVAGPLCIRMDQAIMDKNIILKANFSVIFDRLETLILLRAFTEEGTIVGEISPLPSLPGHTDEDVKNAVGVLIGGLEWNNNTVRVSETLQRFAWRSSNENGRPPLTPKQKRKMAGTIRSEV
Chain of Wee1-like protein kinase (P30291 whole entry): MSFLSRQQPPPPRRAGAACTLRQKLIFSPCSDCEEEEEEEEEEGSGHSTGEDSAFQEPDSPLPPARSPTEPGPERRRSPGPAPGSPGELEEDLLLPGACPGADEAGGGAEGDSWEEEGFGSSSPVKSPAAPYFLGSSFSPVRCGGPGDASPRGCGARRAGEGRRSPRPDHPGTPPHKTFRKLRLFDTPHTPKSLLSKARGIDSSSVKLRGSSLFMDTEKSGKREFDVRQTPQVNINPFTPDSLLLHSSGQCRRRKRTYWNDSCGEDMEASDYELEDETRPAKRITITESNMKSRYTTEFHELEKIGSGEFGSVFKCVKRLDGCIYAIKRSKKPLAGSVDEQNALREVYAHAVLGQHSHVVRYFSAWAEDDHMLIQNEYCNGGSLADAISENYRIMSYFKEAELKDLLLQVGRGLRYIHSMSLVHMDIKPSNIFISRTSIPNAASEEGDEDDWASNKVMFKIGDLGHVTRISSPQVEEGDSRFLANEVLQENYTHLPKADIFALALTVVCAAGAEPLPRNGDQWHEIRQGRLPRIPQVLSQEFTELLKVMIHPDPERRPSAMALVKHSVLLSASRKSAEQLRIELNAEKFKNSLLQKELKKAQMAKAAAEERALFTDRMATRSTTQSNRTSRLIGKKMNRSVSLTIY
Chain of Cyclin-dependent kinase 5/CDK5 activator 1 (Q00535 whole entry): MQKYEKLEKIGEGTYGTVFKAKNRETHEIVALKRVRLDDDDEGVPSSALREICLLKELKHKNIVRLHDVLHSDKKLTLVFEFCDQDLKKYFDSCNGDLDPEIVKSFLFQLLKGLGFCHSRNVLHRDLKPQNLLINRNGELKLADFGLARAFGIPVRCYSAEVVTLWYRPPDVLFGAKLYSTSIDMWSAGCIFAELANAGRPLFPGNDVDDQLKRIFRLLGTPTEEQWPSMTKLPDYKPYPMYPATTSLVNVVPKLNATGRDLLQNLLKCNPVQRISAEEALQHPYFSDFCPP
Chain of Cyclin-dependent kinase 5/CDK5 activator 1 (Q15078 whole entry, further chain): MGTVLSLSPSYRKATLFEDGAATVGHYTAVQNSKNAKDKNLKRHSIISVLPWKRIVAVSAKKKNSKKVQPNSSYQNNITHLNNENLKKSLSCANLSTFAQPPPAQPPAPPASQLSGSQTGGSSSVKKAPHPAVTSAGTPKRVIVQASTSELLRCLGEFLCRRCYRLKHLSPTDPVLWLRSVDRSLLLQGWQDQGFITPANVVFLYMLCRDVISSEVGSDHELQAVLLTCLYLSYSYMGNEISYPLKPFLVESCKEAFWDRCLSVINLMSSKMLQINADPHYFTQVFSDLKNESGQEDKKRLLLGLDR
Chain of Protein Rev (P04618 whole entry): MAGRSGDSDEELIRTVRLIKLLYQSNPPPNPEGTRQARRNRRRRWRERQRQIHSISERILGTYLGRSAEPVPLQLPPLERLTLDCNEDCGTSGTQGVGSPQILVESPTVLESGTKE
Chain of Glucose-6-phosphate 1-dehydrogenase (P11413 whole entry): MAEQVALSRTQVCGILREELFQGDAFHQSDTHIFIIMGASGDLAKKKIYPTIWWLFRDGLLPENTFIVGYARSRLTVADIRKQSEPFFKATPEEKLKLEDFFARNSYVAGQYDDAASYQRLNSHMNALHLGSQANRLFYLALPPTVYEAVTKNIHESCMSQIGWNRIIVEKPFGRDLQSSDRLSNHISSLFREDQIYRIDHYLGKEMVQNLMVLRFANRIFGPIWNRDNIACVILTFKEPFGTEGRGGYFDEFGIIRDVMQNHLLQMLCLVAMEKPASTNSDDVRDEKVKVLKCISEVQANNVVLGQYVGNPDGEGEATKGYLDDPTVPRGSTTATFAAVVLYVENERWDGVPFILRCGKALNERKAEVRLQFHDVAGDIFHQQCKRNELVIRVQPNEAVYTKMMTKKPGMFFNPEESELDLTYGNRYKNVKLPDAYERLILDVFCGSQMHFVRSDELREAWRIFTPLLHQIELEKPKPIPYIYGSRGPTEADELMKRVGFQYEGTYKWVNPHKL
Chain of Scavenger receptor class B member 1 (Q61009 whole entry): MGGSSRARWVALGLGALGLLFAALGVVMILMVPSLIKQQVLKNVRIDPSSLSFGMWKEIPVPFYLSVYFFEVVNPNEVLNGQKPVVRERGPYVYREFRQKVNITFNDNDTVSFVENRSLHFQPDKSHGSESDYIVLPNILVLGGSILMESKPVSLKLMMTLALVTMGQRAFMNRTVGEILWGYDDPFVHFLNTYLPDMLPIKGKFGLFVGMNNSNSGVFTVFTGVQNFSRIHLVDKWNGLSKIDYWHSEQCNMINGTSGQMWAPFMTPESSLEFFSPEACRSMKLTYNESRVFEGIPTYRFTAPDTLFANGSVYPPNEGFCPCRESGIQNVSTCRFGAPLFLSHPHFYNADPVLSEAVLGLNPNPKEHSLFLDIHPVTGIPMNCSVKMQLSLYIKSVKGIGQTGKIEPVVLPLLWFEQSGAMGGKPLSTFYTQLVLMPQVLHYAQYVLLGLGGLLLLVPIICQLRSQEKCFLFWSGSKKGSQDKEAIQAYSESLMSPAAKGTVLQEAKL

For `CCCCOc1ccc(NC(=O)C(=O)NCCCn2ccnc2)cc1`, the EC50 [1] was 18.5 µM (active), the EC50 [2] was 13.9 µM (active) and the EC50 [3] was 10.6 µM (active). The IC50 [4] was > 80 µM (inactive).

With `CCN(CC)c1ccc(C(=C2C=CC(=[N+](CC)CC)C=C2)c2ccc(N(CC)CC)cc2)cc1` the IC50 (Nonstructural protein 1) was 0.774 µM (active), the IC50 (Beta Lactamase) was 10.8 µM (inactive) and the IC50 [5] was 44.7 µM (inactive). The IC50 [6] was > 80 µM (inactive), the IC50 [7] was 10.9 µM (inactive) and the AC50 [8] was 0.57 µM (active). For the same molecule, the IC50 [9] was 20.6 µM (active), the IC50 [10] was > 40.6 µM (inactive) and the CC50 [11] was 4.15 µM (active). The AC50 [12] was 12.3 µM (active), the AC50 [13] was 31.9 µM (active) and the AC50 [14] was 1.01 µM (active).

With `CCOc1ccc2nc(N3CCCN(C(=O)Nc4ccccc4C)CC3)c(C#N)cc2c1` the IC50 (Protein Rev) was 20.3 µM (not active), the CC50 (Vero) was > 40 µM (active) and the IC50 [15] was > 59.7 µM (inactive). For the same molecule, the IC50 (Genome polyprotein) was 38.7 µM (active).

With `COc1ccc(N(CC(=O)NCCc2ccccc2)C(=O)CCl)cc1Cl` the AC50 [16] was 0.223 µM (active), the AC50 [17] was 0.531 µM (active) and the AC50 [18] was 0.231 µM (active). The AC50 [19] was 0.793 µM (active).

With `CCc1ccc(NC(=O)C(=O)NNC(=O)c2cccc(OC)c2)cc1` the IC50 [20] was > 75 µM (active) and the IC50 (cells) was 10.5 µM (active).

For `Cc1cc(O)nc(-n2nc(C)cc2NC(=O)Cc2ccc(F)cc2)n1`, the EC50 (Wee1-like protein kinase) was > 49.7 µM (inactive) and the EC50 [21] was > 49.7 µM (inactive).

In the case of `CCOc1ccc(NS(=O)(=O)c2ccc(C(=O)NNC(=O)c3ccccc3O)cc2)cc1`, the AC50 [22] was 11.1 µM (active).

In the case of `Cc1ccc(-n2[nH]c(C)c(/C=N/N3C(=O)c4cccc5cccc(c45)C3=O)c2=O)cc1`, the IC50 [23] was 6.32 µM (active), the pIC50 [24] was under 4.49 and the IC50 (Beta-galactosidase [25]) was > 66.6 µM (inactive). For the same molecule, the EC50 [26] was 3.95 µM (active) and the EC50 (Beta-galactosidase [27]) was > 31.5 µM (inactive).
